Test results from patent US7129218B2, “Use of rhamnolipids in wound healing, treatment and prevention of gum disease and periodontal regeneration” (Paradigm Biomedical, Inc., priority 1999, dated 2006).
Counter-ions that a name gives are not always drawn.

Key:
mice = conditions: doses that failed to produce antidepressant effects in control animals; cited from earlier work
burn wounds = assay: Burn wounds, 7% body surface, topical treatment (rats); type: in vivo, Sprague-Dawley rats; conditions: 1% chlorhexidine hydrochloride in combination with BAC-3 in ointment, burn wounds
Protocol: The wounding of animals was performed according to the Protocol for Animal Use and Care at the University of California-Davis (hereafter UC-Davis). The entire animal protocol required 70 Sprague-Dawley rats: 30 rats for incision wounds and 40 rats for burn wounds. Among them 36 rats were burned over 7% of their skin and 4 rats were burned over 15% of their skin. Incision wounds of whole skin and burn wounds were treated topically with 2 test doses of the pharmaceutical preparation of di-rhamnolipid BAC-3. […] D.E.A. Hamburg); 23.8 g Lanolinum (Producer I.O.I. Hamburg); 4.7 g Cholesterin (Producer: Solvay, Wiena, Austria); Water Number: 320); or b). 1%; 0.1% active rhamnolipid (BAC-3) with antiseptic (chlorhexidine hydrochloride-[…]). Eucerin with BAC-3 was administrated twice daily during healing. The same experiment had one control group without the treatment, and one control group which was treated with ointment+1% chlorhexidine hydrochloride. During the experiment, animal body weight and behavior was checked every third day, and photographs were taken periodically. Burn wounds. The consecutive burn wounds should ideally be identical in depth and extent. The standard method defines the size and location of the burn wound, the temperature gradient, duration of exposure and method of applying the burn. The wound surface areas tested were of two different sizes. One size to 7% of the body surface, which enables one to compare the rate of wound healing with different percentage of BAC-3 and the other size to 15% of the body surface, which is a sufficient size so that healing could not occur by contraction alone. On the other hand, the total wound surface area should not cause major systematic problems. The latter can be concluded from undisturbed weight gain of the animals. The standard animal burn was performed by techniques and device described by Walker. The burning devices were prepared using a model device ordered from U.S. Army Surgical Research Unit, Experimental Surgery, Army Medical Center, Fort Sam Houston, Tex. 78234. […] The surface of the skin was measured for every animal using Mech's formula: A=kW^2/3; A=surface area in cm^2; W=body weight in grams; k=10. Method of burning. Each animal was anesthetized with sodium pentobarbital administered i/p (5 mg/25 g). (Producer: Veterinary Laboratory Inc. Lenexa, Kans.). The hair over the dorsum was clipped with animal clippers. The animal was placed supine in the burning device and the extremities were tied; the malleable retractor was placed over the animal and secured snugly with plastic straps. The entire device was then picked up by the retractor ends with forceps and the exposed area was immersed in boiling water. Ten seconds of exposure was sufficient to produce a full-thickness burn. On removal from the water, the dorsum was quickly dried by rolling on a towel and the animal was released and individually caged. This procedure produced a uniform burn with sharp margins. On post burn days 7, 14 and 45, animals were sacrificed by overdose of sodium pentobarbital and skin specimens were taken for histopathology. Specimens included the wound bed as well as the healthy skin of the wound margins. The specimens were fixed, and two stainings were routinely performed: Hematoxylin-Eosin (H&E) for microscopic evaluation, Verhoeff's staining for a better visualization of the crust and the regenerating dermis, and the alpha smooth muscle acting to identify the myofibroblasts. Microscopic findings were interpreted by a veterinarian pathologist. During the microscopic and macroscopic observations, four wound healing parameters were evaluated: crust formation, re-epithelialization, formation of granulation tissue and inflammation. 36 rats were divided into 6 groups. Each group had six animals. After burning rats according to the above-described procedure, each rat was caged individually. […]

Wistar Kyoto (WKY) rats [1] = conditions: cited from earlier work
Wistar Kyoto (WKY) rats [2] = conditions: cited from earlier work; remark: listed apart in the source

## Cc1nc2sccn2c(=O)c1CCN1CCC(=C(c2ccc(F)cc2)c2ccc(F)cc2)CC1 [ritanserin]
mice
  PCP-induced enhancement of immobility in the forced swimming test: attenuated

## Cc1nc2n(c(=O)c1CCN1CCC(c3noc4cc(F)ccc34)CC1)CCCC2 [risperidone]
mice
  PCP-induced enhancement of immobility in the forced swimming test: attenuated

## [H]/N=C(\N/C(=N/[H])NCCCCCCNC(=N)NC(=N)Nc1ccc(Cl)cc1)Nc1ccc(Cl)cc1 [chlorhexidine hydrochloride, reference compound]
Burn wounds
  wound irritation (rats scratched the wounds): irritated wounds

## CNCCCN1c2ccccc2CCc2ccccc21 [desipramine]
Wistar Kyoto (WKY) rats [1]
  immobility in the forced swim test: reduces
Wistar Kyoto (WKY) rats [2]
  incidence of stress ulcer: reduces
